# Measured values from patent US20110288082A1, “METHODS AND COMPOSITIONS FOR INHIBITION OF THE TRANSITIONAL ENDOPLASMIC RETICULUM ATPASE” (priority 2010, published 2011).
# Values joined by “and” are separate entries in the source; they are usually repeats but may differ in a detail not shown here. Equal entries are not always repeated. Where two headings read alike, the source gives them in different places.
# What was measured:
# p97 = p97 (Homo sapiens, UniProt P55072); assay: p97 ATPase assay (Kinase Glo Plus; biomol green for compounds that interfere with luciferase); assay type: biochemical
# Procedure: Assay Buffer (20 μL of 2.5× concentration, where 1×=50 mM Tris pH 7.4, 20 mM MgCl2, 1 mM EDTA, 0.5 mM TCEP) was dispensed into each well of a 96 well plate. Purified p97 (25 μL of 50 μM) was diluted in 975 μL, of 1× Assay Buffer and 10 μL was dispensed in each well. Test compound (10 μL) or 5% DMSO (10 μL) was then added to each well and the plate was incubated at room temperature for 10 min. The ATPase assay was carried out by adding to each well 10 μL of 500 μM ATP (pH 7.5), incubating at room temperature for 60 min, and then adding 50 μL Kinase Glo Plus reagent (Promega) followed by a final 10 min incubation at room temperature in the dark. Luminescence was read on an Analyst AD (Molecular Devices). Compounds were assayed at a range of concentrations (0, 0.048, 0.24, 1.2, 6, 30 μM) in triplicate. The percent of remaining activity for each reaction was calculated using the following mathematical expression: ((Test Compound-High Control)/(Low Control-High Control))*100. Test_Compound is defined as wells containing test compound, Low_Control is defined as wells containing DMSO, High_Control is defined as wells containing no p97 protein. […] The result was expressed as mean +/− standard error. For assays with Myriad 12 and 19, 100 μL of biomol green reagent (Enzo Life Sciences) was added to each well instead of kinase Glo Plus (Promega) and absorbance at 630 nm was measured. This was done because these compounds interfered with luciferase activity. […]
# [1] = system: p97-dependent Ub^G76V-GFP degradation in HeLa cells; assay: Ub^G76V-GFP degradation (turn-over) assay; assay type: cell-based, human
# Procedure: Ub^G76V-GFP Degradation Assay
# Two GFP images with 100 ms exposure time per well were acquired and the average GFP intensity per area of a HeLa cell was determined by using MetaXpress software. Mean GFP intensity of 300-500 cells was calculated using Excel. Normalized GFP intensity was calculated using the following formula: (Test compound−Background)/(Basal GFP intensity—Background). Where: Test compound is defined as Mean GFP intensity of Ub^G76V-GFP-expressing cells treated with the test compound. Background is defined as background GFP intensity of HeLa cells. Basal GFP intensity is defined as mean GFP intensity of Ub^G76V-GFP-expressing cells treated with DMSO. […] The percent of remaining k for each compound is calculated using the following formula: (Test compound/DMSO control)*100. Where: Test_compound is defined as k determined from wells containing test compound, DMSO control is defined as k determined from wells containing DMSO.
# [2] = Homo sapiens, HeLa, read-out: IC50 (μM) Ub^G76V-GFP turn over, p97-dependent Ub^G76V-GFP degradation turn-over assay
# [3] = purified p97, ATP, 60 min room temperature, mean +/- standard error
# [4] = Homo sapiens, HeLa, read-out: IC50 (μM) Ub^G76V-GFP turn over, Ub^G76V-GFP-expressing HeLa cells, degradation rate constant k from 90 to 180 min, mean +/- standard error
# [5] = read-out: IC50 (μM) Ub^G76V-GFP turn over, Ub^G76V-GFP-expressing HeLa cells, degradation rate constant k from 90 to 180 min, mean +/- standard error
# Chain of p97 (P55072 2-806 limits assumed): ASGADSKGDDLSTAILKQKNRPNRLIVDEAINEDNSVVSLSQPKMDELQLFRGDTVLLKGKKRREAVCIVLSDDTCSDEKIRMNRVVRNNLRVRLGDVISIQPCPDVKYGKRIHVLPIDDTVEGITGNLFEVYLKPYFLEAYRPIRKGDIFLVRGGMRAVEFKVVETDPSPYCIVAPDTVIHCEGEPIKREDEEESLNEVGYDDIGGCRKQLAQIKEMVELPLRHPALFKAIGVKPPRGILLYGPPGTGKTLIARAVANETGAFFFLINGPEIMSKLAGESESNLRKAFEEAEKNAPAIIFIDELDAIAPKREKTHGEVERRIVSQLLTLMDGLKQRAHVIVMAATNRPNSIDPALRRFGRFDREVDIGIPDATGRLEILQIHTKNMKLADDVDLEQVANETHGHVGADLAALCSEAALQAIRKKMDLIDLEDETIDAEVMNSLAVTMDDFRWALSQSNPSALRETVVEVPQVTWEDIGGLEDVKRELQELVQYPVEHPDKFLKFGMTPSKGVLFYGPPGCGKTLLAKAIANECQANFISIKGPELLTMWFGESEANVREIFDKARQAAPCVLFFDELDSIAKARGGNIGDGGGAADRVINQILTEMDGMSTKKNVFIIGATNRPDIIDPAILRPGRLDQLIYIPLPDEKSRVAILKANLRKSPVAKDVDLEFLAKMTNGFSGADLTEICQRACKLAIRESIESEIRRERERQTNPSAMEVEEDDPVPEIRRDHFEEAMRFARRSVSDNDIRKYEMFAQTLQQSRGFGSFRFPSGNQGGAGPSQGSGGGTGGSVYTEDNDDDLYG
SMILES,"IC50 [1, 2] [µM]",IC50 (p97; [3]),"IC50 [1, 4] [µM]",further results
Clc1cccc(CNc2nc(-c3ccccc3)nc3ccccc23)c1 [Cpd I-12],17 ± 4,,,IC50 (p97; p97 ATPase assay): 28 ± 9 µM
Clc1ccccc1CNc1nc(-c2ccccc2)nc2ccccc12 [Cpd I-14],11 ± 3,,,
Clc1ccc(CNc2nc(-c3ccccc3)nc3ccccc23)cc1 [Cpd I-15],15 ± 3,,,IC50 (p97; p97 ATPase assay): > 30 µM
Fc1ccccc1-c1nc(NCc2ccccc2Cl)c2ccccc2n1 [Cpd I-16],15 ± 3,,,IC50 (p97; p97 ATPase assay): 26 ± 12 µM
CN(Cc1ccccc1)c1nc(-c2ccccc2)nc2ccccc12 [Cpd I-25],17 ± 5,,,
CN(Cc1ccccc1)c1nc(-c2ccccc2F)nc2ccccc12 [Cpd I-26],6 ± 2,,,IC50 (p97; p97 ATPase assay): 25 ± 4 µM
CN(Cc1ccccc1)c1nc(-c2ccccc2[N+](=O)[O-])nc2ccccc12 [Cpd I-27],11 ± 6,,,IC50 (p97; p97 ATPase assay): 25 ± 11 µM
CC(Nc1nc(-c2ccccc2)nc2ccccc12)c1ccccc1 (stereo not drawn) [Cpd I-29],13 ± 1,,,IC50 (p97; p97 ATPase assay): 27 ± 14 µM
CC(Nc1nc(-c2ccccc2F)nc2ccccc12)c1ccccc1 (stereo not drawn) [Cpd I-31],15 ± 4,,,IC50 (p97; p97 ATPase assay): > 30 µM
Clc1ccc2c(NCc3ccccc3)nc(-c3ccccc3)nc2c1 [Cpd I-32],12 ± 4,,,
c1ccc(-c2nc(N3CCc4ccccc4C3)c3ccccc3n2)cc1 [Cpd I-35],19 ± 5,,,IC50 (p97; p97 ATPase assay): > 30 µM
Fc1ccccc1-c1nc(NCc2ccccc2)c2ccccc2n1 [I-1],,1.1 µM and 3 µM,8 ± 1.7,"IC50 [1, 5]: 9 ± 1.3 µM"
c1ccc(CNc2nc(-c3ccccc3)nc3ccccc23)cc1 [I-2],,4.2 ± 2.3 µM,12 ± 3,
Clc1ccccc1-c1nc(NCc2ccccc2)c2ccccc2n1 [I-3],,,8 ± 3,
O=[N+]([O-])c1cccc(-c2nc(NCc3ccccc3)c3ccccc3n2)c1 [I-4],,,4 ± 1.6,
Cc1cccc(-c2nc(NCc3ccccc3)c3ccccc3n2)c1 [I-5],,4.2 ± 0.2 µM,17 ± 4,
Clc1ccc(-c2nc(NCc3ccccc3)c3ccccc3n2)cc1 [I-6],,5.5 ± 1.9 µM,20 ± 3,
O=[N+]([O-])c1ccc(-c2nc(NCc3ccccc3)c3ccccc3n2)cc1 [I-8],,11 ± 6 µM,19 ± 7,
COc1ccc(-c2nc(NCc3ccccc3)c3ccccc3n2)cc1 [I-9],,1.6 ± 0.3 µM,15 ± 2,
Cc1ccc(-c2nc(NCc3ccccc3)c3ccccc3n2)cc1 [I-10],,5.7 ± 0.7 µM,13 ± 2,
Clc1ccc(-c2nc(NCc3ccccc3)c3ccccc3n2)cc1Cl [I-11],,7.1 ± 0.4 µM,37 ± 6,
Fc1ccc(CNc2nc(-c3ccccc3)nc3ccccc23)cc1 [I-13],,11 ± 3 µM,19 ± 3,
COc1ccc(-c2nc(NCc3ccc(F)cc3)c3ccccc3n2)cc1 [I-17],,7.8 ± 0.4 µM,9.8 ± 3,
COc1ccc(CNc2nc(-c3ccc(OC)cc3)nc3ccccc23)cc1 [I-20],,13 ± 4 µM,15 ± 5,

SMILES,"IC50 [1, 2] [µM]",IC50 (p97; [3]),"IC50 [1, 4] [µM]",further results
COc1ccc(-c2nc(NCc3ccc(C)cc3)c3ccccc3n2)cc1 [I-21],,8 ± 2 µM,12 ± 2,
COc1ccc(-c2nc(NCc3ccc(Cl)cc3)c3ccccc3n2)cc1 [I-22],,8 ± 2 µM,9.3 ± 1,
Fc1ccc(CNc2nc(-c3ccc(Cl)cc3)nc3ccccc23)cc1 [I-23],,8 ± 0.2 µM,20 ± 5,
Cc1cccc(-c2nc(NCc3ccc(F)cc3)c3ccccc3n2)c1 [I-24],,15 ± 2 µM,12 ± 0.8,
CN(Cc1ccccc1)c1nc(-c2ccc([N+](=O)[O-])cc2)nc2ccccc12 [I-28],,8.4 ± 4 µM,28 ± 4,
Cc1ccc(-c2nc(NC(C)c3ccccc3)c3ccccc3n2)cc1 (stereo not drawn) [I-30],,7 ± 4 µM,17 ± 4,
Cc1ccc(-c2nc(NCc3ccccc3)c3ccc(Cl)cc3n2)cc1 [I-33],24 ± 5,,,
COc1ccc(-c2nc(NCc3ccccc3)c3ccc(Cl)cc3n2)cc1 [I-34],70 ± 30,,,IC50 (p97; p97 ATPase assay): 25 ± 11 µM
c1ccc(CNc2nc(Nc3ccccc3)nc3ccccc23)cc1 [II-1],,,3.1 ± 0.4,
Cc1ccc(Nc2nc(NCc3ccccc3)c3ccccc3n2)cc1 [II-2],,2.2 ± 0.4 µM,6.3 ± 1.4,
Clc1ccc(Nc2nc(NCc3ccccc3)c3ccccc3n2)cc1 [II-3],,5.4 ± 2 µM,5.9 ± 1.2,
Fc1ccc(Nc2nc(NCc3ccccc3)c3ccccc3n2)cc1 [II-4],,3.8 ± 1.2 µM,9.4 ± 1,
Brc1ccc(Nc2nc(NCc3ccccc3)c3ccccc3n2)cc1 [II-5],,1.8 ± 0.4 µM,6 ± 0.8,
COc1ccc(Nc2nc(NCc3ccccc3)c3ccccc3n2)cc1 [II-6],,3.8 µM and 3.5 µM,4.5 ± 1.1,"IC50 [1, 5]: 4.8 ± 0.7 µM"
Cc1ccccc1Nc1nc(NCc2ccccc2)c2ccccc2n1 [II-7],,3.4 ± 1.5 µM,10 ± 2,
Clc1ccccc1Nc1nc(NCc2ccccc2)c2ccccc2n1 [II-8],13 ± 2,,,IC50 (p97; p97 ATPase assay): 69 ± 25 µM
Fc1ccccc1Nc1nc(NCc2ccccc2)c2ccccc2n1 [II-9],,0.85 ± 0.17 µM,10 ± 2,
Brc1ccccc1Nc1nc(NCc2ccccc2)c2ccccc2n1 [II-10],13 ± 2,,,IC50 (p97; p97 ATPase assay): 64 ± 24 µM
Clc1cccc(Nc2nc(NCc3ccccc3)c3ccccc3n2)c1 [II-13],,,7.8 ± 1.3,
Fc1cccc(Nc2nc(NCc3ccccc3)c3ccccc3n2)c1 [II-14],,,2.7 ± 0.4,
Cc1ccc(CNc2nc(NCc3ccccc3)c3ccccc3n2)cc1 [IV-1],,,1.5 ± 0.4,
Fc1cccc(CNc2nc(NCc3ccccc3)c3ccccc3n2)c1 [IV-13],,,2.8 ± 0.4,
Brc1cccc(CNc2nc(NCc3ccccc3)c3ccccc3n2)c1 [IV-14],,,2.8 ± 0.4,
COc1cccc(CNc2nc(NCc3ccccc3)c3ccccc3n2)c1 [IV-15],,,2.5 ± 0.8,

SMILES,"IC50 [1, 2] [µM]",IC50 (p97; [3]),"IC50 [1, 4] [µM]",further results
FC(F)(F)c1ccc(CNc2nc(NCc3ccccc3)c3ccccc3n2)cc1 [IV-16],,,2.3 ± 0.3,
COc1cccc2c(NCc3ccccc3)nc(NCc3cccs3)nc12 [XI-14],,,1.8 ± 0.3,
COc1cccc2c(NCc3ccccc3)nc(Nc3cccc(Cl)c3)nc12 [XI-16],,,5.4 ± 1,
COc1cccc2c(NCc3ccccc3)nc(Nc3cccc(F)c3)nc12 [XI-17],,,4.8 ± 0.7,
COc1cccc2c(NCc3ccccn3)nc(N3CCNc4ccccc43)nc12 [XLIII],16 ± 2,,,
c1ccc(CNc2nc(N3CCOCC3)nc3ccccc23)cc1 [XLIV],36 ± 9,,,
N#CC(C(=O)COC(=O)CNc1ccc(C(F)(F)F)cc1[N+](=O)[O-])=C1Nc2ccccc2N1 [XLI],6.5 ± 0.8,,,
N#CC(C(=O)COC(=O)C1COc2ccccc2O1)=C1Nc2ccccc2N1 (stereo not drawn) [XL],10 ± 1.4,,,
c1ccc(CNc2nc(N3CCCCC3)nc3ccccc23)cc1 [XXII],7.3 ± 2,,,
CCc1ccc(Nc2nc(N)nc(CCl)n2)cc1 [XXIX],18 ± 3,,,
Nc1nc(CCl)nc(N2CCCc3ccccc32)n1 [XXVIII],17 ± 3,,,
Nc1nc(Nc2cccc(Cl)c2)nc(C(Cl)Cl)n1 [XXVII],13 ± 3,,,
Nc1nc(CCl)nc(N2CCc3ccccc32)n1 [XXVI],10.4 ± 1.5,,,
N#CC(C(=O)COC(=O)c1ccccc1Cc1ccccc1)=C1Nc2ccccc2N1 [XXXIII],3.4 ± 0.6,,,
N#CC(C(=O)COC(=O)COc1ccc(Cl)cc1)=C1Nc2ccccc2N1 [XXXII],2.6 ± 0.2,,,
N#CC(C(=O)COC(=O)COc1cccc(Br)c1)=C1Nc2ccccc2N1 [XXXIV],5.9 ± 0.8,,,
N#CC(C(=O)COC(=O)CCC(=O)c1ccc2c(c1)OCCO2)=C1Nc2ccccc2N1 [XXXIX],6.3 ± 0.6,,,
Nc1nc(CCl)nc(Nc2ccc(Cl)cc2)n1 [XXXI],8 ± 2,,,
Cc1cc(OCC(=O)OCC(=O)C(C#N)=C2Nc3ccccc3N2)ccc1Cl [XXXVIII],16 ± 1.4,,,
Cc1cc(C)cc(OCC(=O)OCC(=O)C(C#N)=C2Nc3ccccc3N2)c1 [XXXVII],13 ± 1.4,,,
Cc1cccc(C)c1OCC(=O)OCC(=O)C(C#N)=C1Nc2ccccc2N1 [XXXVI],15 ± 2,,,
CCCOc1ccc(C(=O)CCC(=O)OCC(=O)C(C#N)=C2Nc3ccccc3N2)cc1 [XXXV],6.1 ± 0.6,,,
Nc1nc(CCl)nc(Nc2cccc3ccccc23)n1 [XXX],14 ± 3,,,
